“And” between values parts separate entries of the source, which are not always exact repeats. Equal entries are not always repeated.
Legend:
SW620 cells = experiment: WST-8 cytotoxicity assay, SW620; conditions: for IC50: read-out: IC50 SW620, human colon cancer cell, 72 h, mean ± SE (n = 3)
Protocol: (§1) With a range of chromophore analogues in hand, their toxicity to SW620 cells was investigated by WST assays.
(§2) Basically, the evaluation was performed using methods previously reported by our group[20],[23]. Cytotoxic activities of compounds against MIA PaCa-2 (American Type Culture Collection), SW620 (European Collection of Authenticated Cell Cultures) were measured by WST-8 assay according to manufacturer’s protocol. Briefly, cells (1 × 10^4 cells/well) in a 96-well plate were cultured in medium (for MIA PaCa-2, D-MEM (Wako, Japan) containing 10% fetal bovine serum (Funakoshi, Japan), 100 units/mL penicillin G and 100 µg/mL streptomycin (Wako, Japan), for SW620, RPMI-1640 (Wako, Japan) containing 10% fetal bovine serum, 100 units/mL penicillin G and 100 µg/mL streptomycin) were cultured at 37 °C for 24 h under 5% CO2 atmosphere. Then, cells were treated with test compounds (final DMSO concentration was 1%) at 37 °C for 72 h under 5% CO2 atmosphere. Then, cells were treated with a solution of Cell Counting Kit-8® (Dojindo, Japan) for 3 h. After that, cell viabilities were determined based on the measurement of absorption at 450 nm of the wells by using TECAN Infinite® M200 microplate reader. The results were expressed as a percentage of the negative control (cells treated with DMSO only), and that value was fixed at 100%.

MIA PaCa-2 cells = conditions: read-out: IC50 MIA PaCa-2; human pancreatic carcinoma cell, 72 h, mean ± SE (n = 3)
Protocol: as §1, §2

Compound: CC(C)[C@H]1C(=O)OC[C@@H](NC(=O)c2cnc3ccccc3n2)C(=O)N[C@@H](C)C(=O)N(C)[C@H]2CSC[C@@H](C(=O)N1C)N(C)C(=O)[C@H](C)NC(=O)[C@H](NC(=O)c1cnc3ccccc3n1)COC(=O)[C@H](C(C)C)N(C)C2=O [Compound 2]
- IC50 (SW620 cells): 0.026 µM and 0.0256 µM
- IC50 (MIA PaCa-2 cells): 0.0081 ± 0.001 µM

Compound: CC(C)[C@H]1C(=O)OC[C@@H](NC(=O)c2ccc3ccccc3n2)C(=O)N[C@@H](C)C(=O)N(C)[C@H]2CSC[C@@H](C(=O)N1C)N(C)C(=O)[C@H](C)NC(=O)[C@H](NC(=O)c1ccc3ccccc3n1)COC(=O)[C@H](C(C)C)N(C)C2=O [Compound 4]
- cytotoxicity to SW620 cells (in words) (SW620 cells): slightly better cytotoxicity than 2
- IC50 (SW620 cells): 0.0205 ± 0.0031 µM
- IC50 (MIA PaCa-2 cells): 0.0058 ± 0.0009 µM

Compound: CC(C)[C@H]1C(=O)OC[C@@H](NC(=O)c2cnc3ccccc3c2)C(=O)N[C@@H](C)C(=O)N(C)[C@H]2CSC[C@@H](C(=O)N1C)N(C)C(=O)[C@H](C)NC(=O)[C@H](NC(=O)c1cnc3ccccc3c1)COC(=O)[C@H](C(C)C)N(C)C2=O [Compound 5, {N-(Quinoline-3-carbonyl)-D-Ser-L-Ala-N-Boc-N-Me-L-Cys-N-Me-L-Val}2 sulfide]
- IC50 (SW620 cells): 1.21 ± 0.035 µM
- IC50 (MIA PaCa-2 cells): 0.399 ± 0.076 µM

Compound: CC(C)[C@H]1C(=O)OC[C@@H](NC(=O)c2ccc3ncccc3c2)C(=O)N[C@@H](C)C(=O)N(C)[C@H]2CSC[C@@H](C(=O)N1C)N(C)C(=O)[C@H](C)NC(=O)[C@H](NC(=O)c1ccc3ncccc3c1)COC(=O)[C@H](C(C)C)N(C)C2=O [Compound 6, {N-(Quinoline-6-carbonyl)-D-Ser-L-Ala-N-Boc-N-Me-L-Cys-N-Me-L-Val}2 sulfide]
- IC50 (SW620 cells): 1.19 ± 0.187 µM
- IC50 (MIA PaCa-2 cells): 0.327 ± 0.066 µM

Compound: CC(C)[C@H]1C(=O)OC[C@@H](NC(=O)c2ccc3ccccc3c2)C(=O)N[C@@H](C)C(=O)N(C)[C@H]2CSC[C@@H](C(=O)N1C)N(C)C(=O)[C@H](C)NC(=O)[C@H](NC(=O)c1ccc3ccccc3c1)COC(=O)[C@H](C(C)C)N(C)C2=O [Compound 7, {N-(Naphthalene-2-carbonyl)-D-Ser-L-Ala-N-Boc-N-Me-L-Cys-N-Me-L-Val}2 sulfide]
- cytotoxicity to SW620 cells (in words) (SW620 cells): completely diminished activity
- IC50 (SW620 cells): > 10 µM
- IC50 (MIA PaCa-2 cells): > 10 µM

Compound: CC(C)[C@H]1C(=O)OC[C@@H](NC(=O)c2cc3ccccc3[nH]2)C(=O)N[C@@H](C)C(=O)N(C)[C@H]2CSC[C@@H](C(=O)N1C)N(C)C(=O)[C@H](C)NC(=O)[C@H](NC(=O)c1cc3ccccc3[nH]1)COC(=O)[C@H](C(C)C)N(C)C2=O [Compound 8, {N-(Indol-2-carbonyl)-D-Ser-L-Ala-N-Boc-N-Me-L-Cys-N-Me-L-Val}2 sulfide]
- IC50 (SW620 cells): > 10 µM
- IC50 (MIA PaCa-2 cells): > 10 µM

Compound: CC(C)[C@H]1C(=O)OC[C@@H](NC(=O)c2c[nH]c3ccccc23)C(=O)N[C@@H](C)C(=O)N(C)[C@H]2CSC[C@@H](C(=O)N1C)N(C)C(=O)[C@H](C)NC(=O)[C@H](NC(=O)c1c[nH]c3ccccc13)COC(=O)[C@H](C(C)C)N(C)C2=O [Compound 9, {N-(Indol-3-carbonyl)-D-Ser-L-Ala-N-Boc-N-Me-L-Cys-N-Me-L-Val}2 sulfide]
- IC50 (SW620 cells): > 10 µM
- IC50 (MIA PaCa-2 cells): > 10 µM

Compound: CC(C)[C@H]1C(=O)OC[C@@H](NC(=O)c2ccc3[nH]ccc3c2)C(=O)N[C@@H](C)C(=O)N(C)[C@H]2CSC[C@@H](C(=O)N1C)N(C)C(=O)[C@H](C)NC(=O)[C@H](NC(=O)c1ccc3[nH]ccc3c1)COC(=O)[C@H](C(C)C)N(C)C2=O [Compound 10, {N-(Indol-5-carbonyl)-D-Ser-L-Ala-N-Boc-N-Me-L-Cys-N-Me-L-Val}2 sulfide]
- IC50 (SW620 cells): > 10 µM
- IC50 (MIA PaCa-2 cells): > 10 µM

Compound: CC(C)[C@H]1C(=O)OC[C@@H](NC(=O)c2ccc3cc[nH]c3c2)C(=O)N[C@@H](C)C(=O)N(C)[C@H]2CSC[C@@H](C(=O)N1C)N(C)C(=O)[C@H](C)NC(=O)[C@H](NC(=O)c1ccc3cc[nH]c3c1)COC(=O)[C@H](C(C)C)N(C)C2=O [Compound 11, {N-(Indol-6-carbonyl)-D-Ser-L-Ala-N-Boc-N-Me-L-Cys-N-Me-L-Val}2 sulfide]
- IC50 (SW620 cells): > 10 µM
- IC50 (MIA PaCa-2 cells): > 10 µM

Compound: CC(C)[C@H]1C(=O)OC[C@@H](NC(=O)c2cccc3cc[nH]c23)C(=O)N[C@@H](C)C(=O)N(C)[C@H]2CSC[C@@H](C(=O)N1C)N(C)C(=O)[C@H](C)NC(=O)[C@H](NC(=O)c1cccc3cc[nH]c13)COC(=O)[C@H](C(C)C)N(C)C2=O [Compound 12, {N-(Indol-7-carbonyl)-D-Ser-L-Ala-N-Boc-N-Me-L-Cys-N-Me-L-Val}2 sulfide]
- IC50 (SW620 cells): > 10 µM
- IC50 (MIA PaCa-2 cells): > 10 µM

Compound: CC(C)[C@H]1C(=O)OC[C@@H](NC(=O)c2cc3ccccc3o2)C(=O)N[C@@H](C)C(=O)N(C)[C@H]2CSC[C@@H](C(=O)N1C)N(C)C(=O)[C@H](C)NC(=O)[C@H](NC(=O)c1cc3ccccc3o1)COC(=O)[C@H](C(C)C)N(C)C2=O [Compound 13, {N-(Benzofurane-2-carbonyl)-D-Ser-L-Ala-N-Boc-N-Me-L-Cys-N-Me-L-Val}2 sulfide]
- IC50 (SW620 cells): > 10 µM
- IC50 (MIA PaCa-2 cells): > 10 µM

Compound: CC(C)[C@H]1C(=O)OC[C@@H](NC(=O)c2cc3ccccc3s2)C(=O)N[C@@H](C)C(=O)N(C)[C@H]2CSC[C@@H](C(=O)N1C)N(C)C(=O)[C@H](C)NC(=O)[C@H](NC(=O)c1cc3ccccc3s1)COC(=O)[C@H](C(C)C)N(C)C2=O [Compound 14, {N-(Benzothiophene-2-carbonyl)-D-Ser-L-Ala-N-Boc-N-Me-L-Cys-N-Me-L-Val}2 sulfide]
- IC50 (SW620 cells): > 10 µM
- IC50 (MIA PaCa-2 cells): > 10 µM

Compound: CC(C)[C@H]1C(=O)OC[C@@H](NC(=O)c2ccc3ocnc3c2)C(=O)N[C@@H](C)C(=O)N(C)[C@H]2CSC[C@@H](C(=O)N1C)N(C)C(=O)[C@H](C)NC(=O)[C@H](NC(=O)c1ccc3ocnc3c1)COC(=O)[C@H](C(C)C)N(C)C2=O [Compound 15, {N-(Benzoxazole-5-carbonyl)-D-Ser-L-Ala-N-Boc-N-Me-L-Cys-N-Me-L-Val}2 sulfide]
- IC50 (SW620 cells): > 10 µM
- IC50 (MIA PaCa-2 cells): > 10 µM

Compound: CC(C)[C@H]1C(=O)OC[C@@H](NC(=O)c2ccc3ncoc3c2)C(=O)N[C@@H](C)C(=O)N(C)[C@H]2CSC[C@@H](C(=O)N1C)N(C)C(=O)[C@H](C)NC(=O)[C@H](NC(=O)c1ccc3ncoc3c1)COC(=O)[C@H](C(C)C)N(C)C2=O [Compound 16, {N-(Benzoxazole-6-carbonyl)-D-Ser-L-Ala-N-Boc-N-Me-L-Cys-N-Me-L-Val}2 sulfide]
- IC50 (SW620 cells): > 10 µM
- IC50 (MIA PaCa-2 cells): > 10 µM

Compound: CC(C)[C@H]1C(=O)OC[C@@H](NC(=O)c2ccc3ncsc3c2)C(=O)N[C@@H](C)C(=O)N(C)[C@H]2CSC[C@@H](C(=O)N1C)N(C)C(=O)[C@H](C)NC(=O)[C@H](NC(=O)c1ccc3ncsc3c1)COC(=O)[C@H](C(C)C)N(C)C2=O [Compound 17]
- IC50 (SW620 cells): > 10 µM
- IC50 (MIA PaCa-2 cells): > 10 µM

Compound: CC(C)[C@H]1C(=O)OC[C@@H](NC(=O)c2ccc(C(=O)c3ccccc3)cc2)C(=O)N[C@@H](C)C(=O)N(C)[C@H]2CSC[C@@H](C(=O)N1C)N(C)C(=O)[C@H](C)NC(=O)[C@H](NC(=O)c1ccc(C(=O)c3ccccc3)cc1)COC(=O)[C@H](C(C)C)N(C)C2=O [Compound 18, {N-(4-Benzoylphenylcarbonyl)-D-Ser-L-Ala-N-Boc-N-Me-L-Cys-N-Me-L-Val}2 sulfide]
- cytotoxicity to SW620 cells (in words) (SW620 cells): lost their cytotoxicity
- IC50 (SW620 cells): > 10 µM
- IC50 (MIA PaCa-2 cells): > 10 µM

Compound: CC(C)[C@H]1C(=O)OC[C@@H](NC(=O)c2ccc3c(c2)C(=O)c2ccccc2C3=O)C(=O)N[C@@H](C)C(=O)N(C)[C@H]2CSC[C@@H](C(=O)N1C)N(C)C(=O)[C@H](C)NC(=O)[C@H](NC(=O)c1ccc3c(c1)C(=O)c1ccccc1C3=O)COC(=O)[C@H](C(C)C)N(C)C2=O [Compound 19, {N-(Anthraquinone-2carbonyl)-D-Ser-L-Ala-N-Boc-N-Me-L-Cys-N-Me-L-Val}2 sulfide]
- cytotoxicity to SW620 cells (in words) (SW620 cells): lost their cytotoxicity
- IC50 (SW620 cells): > 10 µM
- IC50 (MIA PaCa-2 cells): > 10 µM

Compound: CC(C)[C@H]1C(=O)OC[C@@H](NC(=O)c2cnccn2)C(=O)N[C@@H](C)C(=O)N(C)[C@H]2CSC[C@@H](C(=O)N1C)N(C)C(=O)[C@H](C)NC(=O)[C@H](NC(=O)c1cnccn1)COC(=O)[C@H](C(C)C)N(C)C2=O [Compound 20, {N-(Pyradine-2carbonyl)-D-Ser-L-Ala-N-Boc-N-Me-L-Cys-N-Me-L-Val}2 sulfide]
- cytotoxicity to SW620 cells (in words) (SW620 cells): lost their cytotoxicity

Reference: publication PMC10985088, “Synthesis and biological evaluation of echinomycin analogues as potential colon cancer agent” (Scientific Reports, 2024)
